Reference: patent US20130123368A1, “METHODS OF REDUCING 15-F2T-ISOP LEVELS IN MAMMALS” (BIOACTIVES, INC., priority 2007, published 2013)

What was measured:
[1] = tested on: Caco-2 cell monolayers; assay: Permeability of xanthohumol across Caco-2 cell monolayers; type: in vitro ADME; settings: for Percent Recovery: Caco-2, B-to-A, 2 μM in HBSSg, 37° C.
Protocol: Percent Recovery=100×((Vr×Cr^final)+(Vd×Cd^final))/(Vd×C0)
Where: • dCr/dt is the slope of the cumulative concentration in the receiver compartment versus time in μM s^−1. • Vr is the volume of the receiver compartment in cm^3. • Vd is the volume of the donor compartment in cm^3. • A is the area of the cell-free insert (1.13 cm^2 for 12-well Transwell). • Cr^final is the cumulative receiver concentration in μM at the end of the incubation period. • Cd^final is the concentration of the donor in μM at the end of the incubation period. • C0 is the initial concentration of the dosing solution in μM.
Each determination was performed in duplicate.

[2] = tested on: Caco-2 cell monolayers; assay: Certification of Caco-2 Transwell plates with reference compounds; type: in vitro ADME; settings: plate certification TW12, passage 63, age 22 days
Protocol: To test the permeability of xanthohumol across Caco-2 cell monolayers, Caco-2 cell monolayers were grown to confluence on collagen-coated, microporous, polycarbonate membranes in 12-well Costar Transwell® plates. Details of the plates and their certification are shown below in Table 3. The test article was also the aqueous xanthohumol formulation, and the dosing concentration was 2 μM in the assay buffer (HBSSg) as in the previous example. Cell monolayers were dosed on the apical side (A-to-B) or basolateral side (B-to-A) and incubated at 37° C. with 5% CO2 in a humidified incubator. Samples were taken from the donor chamber at 120 minutes, and samples from the receiver chamber were collected at 60 and 120 minutes. Each determination was performed in duplicate. Lucifer yellow permeability was also measured for each monolayer after being subjected to the test article to ensure no damage was inflicted to the cell monolayers during the permeability experiment. All samples were assayed for Xanthohumol by LC/MS/MS using electrospray ionization. The apparent permeability (Papp), and percent recovery were calculated as described above.

Lucifer yellow Papp, post-experiment integrity control ([1]; all monolayers after exposure to the test article) | Papp [2] | Significant Efflux ([1]; Caco-2) | Percent Recovery ([1]; Average) | Percent Recovery ([1]; Rep. 1) | Compound | Absorption Potential ([1]; Caco-2, classification by Papp(A-to-B))
< 8 nm/s | 1.3 nm/s | – | – | – | Lucifer Yellow [reference compound] | –
– | – | No | 81 | 81 | COc1cc(O)c(CC=C(C)C)c(O)c1C(=O)/C=C/c1ccc(O)cc1 [Xanthohumol, 2′,4′,4-trihydroxy-6′-methoxy-3′-prenylchalcone] | Medium (1.0 × 10^−6 cm/s > Papp(A-to-B) ≧ 0.5 × 10^−6 cm/s Medium)
